What was measured:
[1] = tested on: Neutrophil elastase activity in U937 cells; assay: Neutrophil elastase activity in U937 cytosolic lysate after incubation with test compound; format: cell-based; conditions: Homo sapiens, U-937, U937 cells incubated 48 hours with compound, read-out: Reduction of NE-activity in U937 cells IC50
Method: Determination of Neutrophil Elastase Activity in U937 Cytosolic Lysate Preparation after Incubation with Test Compound
Optiplate 384F were purchased from PerkinElmer (Prod. No. #6007270). 24well Nunclon cell culture plates (No. 142475) and 96well plates (No. 267245) were from Nunc. Dimethylsulfoxid (DMSO) was from Sigma (Prod. No. D8418). Nonidet-P40 (NP40) was from USBiological (Prod. No. N3500)
Substrate, specific for Neutrophil elastase, was from Bachem (MeOSuc-Ala-Ala-Pro-Val-AMC; Prod. No. I-1270).
Human neutrophil elastase was from Calbiochem (Prod. No. 324681)
Tris-buffer (100 mM Tris; 1M NaCL; pH 7.5)
Tris-buffer+HSA 0.1%; Human Serum Albumin from Calbiochem (Cat#. 126658)
Serine-protease buffer (20 mM Tris; 100 mM NaCL; pH 7.5)+0.1% HSA
Serine protease lysis buffer: 20 mM Tris-HCL; 100 mM NaCl pH 7.5; +0.2% Nonidet-P40;
PBS: phosphate buffered saline, without Ca and Mg, from Gibco
U937 from ECACC (Cat. No. 85011440) cultured in suspension at 37° C. and 5% CO2.
Cell density: 0.2-1 Mio. Cells/ml.
Medium: RPMI1640 GlutaMAX (No. 61870) with 10% FCS from Gibco
Cell Seeding and Treatment:
Compounds in 100% DMSO were diluted in Medium (—FCS) with 10% DMSO and further diluted according to the experiment planned.
20 μl of the compound solution was transferred in the respective wells of the 24 well plate and diluted with 2 ml cell suspension/well containing […] (final concentration of DMSO=0.1%). Compound dilution factor=100
Compounds (up to 7 concentrations) were tested in triplicates with 3 wells for the DMSO 0.1% control, incubatet for 48 hours without medium change at 37° C., 5% CO2 and 95% relative humidity.
Cell Harvesting and Cell Lysate:
Transfer the cell suspension in 2.2 ml Eppendorf cups. Separate cells from medium by centrifugation (400×g; 5 min; RT); discard the supernatant. Resuspend in 1 ml PBS; centrifugation (400×g; 5 min; RT); wash cells twice with PBS. Add 100 μl Serin lysis buffer (ice cold) to the cell pellet; resuspend the pellet and store on ice for 15 minutes. Remove debris by centrifugation at 15000×g for 10 min at 4° C. Transfer 80-100 μl lysate supernatant in 96well plate and store immediately at −80° C.
Neutrophil Elastase Activity Assay:
Frozen lysates were thawn at 37° C. for 10 minutes and stored on ice. Protein content was determined with Bradford protein assay. Lysates were diluted to 0.2-0.5 mg/ml protein in serine protease buffer+HSA.
Standard: NE ([…] stocksolution in Tris-buffer; stored at −80° C.) was diluted in Tris-buffer+HSA to 750 ng/ml, and further serially diluted 1:2 for the standard curve.
Buffer, blank, standard and lysate samples were transferred into 384 well plate
Blank: 5 μl Tris-buffer+10 μl Tris-buffer+HSA+5 μl Substrate
Standard: 5 μl Tris-buffer+10 μl NE (diff.conc.)+5 μl Substrate
Lysate: 5 μl Tris-buffer+10 μl Lysat+5 μl Substrate
The increase in fluorescence (Ex360 nm/Em 460 nm) is determined over 30 minutes with a Molecular Device Spectramax M5 Fluorescence Reader. Kinetic Reduction (Vmax units/sec); 4 vmax points. The amount of neutrophil elastase (ng/ml) is calculated using the standard curve and the Spectramax software. The result is interpolated to ng/mg lysate protein using excel formula functions. Percent inhibition in the compound-treated lysate samples is calculated relative to the DMSO-treated control-sample (100−(compound-sample*100)/control-sample)
IC50 is calculated using Graphpad Prism; nonlinear fitting (log(inhibitor) vs. response—Variable slope).

[2] = target: recombinant human Cathepsin K (Homo sapiens (Human), UniProt P43235); assay: Inhibition of Human Cathepsin K; format: biochemical; conditions: substrate Z-Gly-Pro-Arg-AMC, 60 min room temperature
Sequence of recombinant human Cathepsin K (P43235 115-329): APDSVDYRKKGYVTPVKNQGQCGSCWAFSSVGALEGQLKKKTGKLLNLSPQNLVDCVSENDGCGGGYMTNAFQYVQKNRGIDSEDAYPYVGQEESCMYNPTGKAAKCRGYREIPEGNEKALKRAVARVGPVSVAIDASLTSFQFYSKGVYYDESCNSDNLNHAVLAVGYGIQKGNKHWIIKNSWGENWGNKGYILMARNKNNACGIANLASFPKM
Description: Inhibition of Human Cathepsin K Materials: Microtiterplates (Optiplate-384 F were purchased from PerkinElmer (Prod. No. 6007270). The substrate Z-Gly-Pro-Arg-AMC was from Biomol (Prod.-No. P-142). L-Cysteine (Prod. No. 168149) was from Sigma. Sodium actetate was from Merck (Prod.-No. 6268.0250), EDTA was from Fluka (Prod.-No. 03680). The inhibitor E-64 was purchased from Sigma (Prod.-No. E3132). The recombinant human Cathepsin K proenzyme was purchased from Biomol (Prod. No. SE-367). All other materials were of highest grade commercially available.
The following buffers were used: Activation buffer: 32.5 mM sodium acetate, adjusted to pH 3.5 with HCl; Assay buffer: 150 mM sodium acetate, 4 mM EDTA, 20 mM L-Cysteine, adjusted to pH 5.5 with HCl,
To activate the proenzyme, 5 μl procathepsin K were mixed with 1 ul activation buffer, and incubated at room temperature for 30 min.
5 μL test compound (final concentration 0.1 nM to 100 μM) in aqua bidest (containing 4% DMSO, final DMSO concentration 1%) were mixed with 10 uL of Cathepsin K in assay buffer (final concentration 2 ng/μL) and incubated for 10 min. Then 5 μL of substrate in assay buffer (final concentration 12.5 μM) were added. The plates were then incubated at room temperature for 60 min. Then, the reaction was stopped by adding 10 μL of E64 in assay buffer (final concentration 1 μM). The fluorescence in the wells was determined using a Molecular Devices SpectraMax M5 Fluorescence Reader (Ex 360 nm, Em 460 nm).
Each assay microtiter plate contains wells with vehicle controls (1% DMSO in bidest) as reference for non-inhibited enzyme activity (100% Ctl; high values) and wells with inhibitor (E64 in bidest+1% DMSO, final concentration 1 μM) as controls for background fluorescence (0% Ctl; low values). The analysis of the data was performed by calculating the percentage of fluorescence in the presence of test compound in comparison to the fluorescence of the vehicle control after subtracting the background fluorescence: (RFU(sample)−RFU(background))*100/(RFU(control)−RFU(background))
Data from these calculations were used to generate IC50 values for inhibition of Cathepsin K, respectively.

IC50 [1] [nM]	IC50 [2] [nM]	SMILES
33	600	N#C[C@H](Cc1ccc(-c2ccc3c(c2)NC(=O)C3)cc1F)NC(=O)C12CCC(CC1)CN2 [Example 23]
13	1100	COCCN1C(=O)Cc2ccc(-c3ccc(C[C@@H](C#N)NC(=O)C45CCC(CC4)CN5)c(F)c3)cc21 [Example 26]
7	1700	CC1(C)OC(=O)c2ccc(-c3ccc(C[C@@H](C#N)NC(=O)C45CCC(CC4)CN5)c(F)c3)cc21 [Example 27]
13	2200	CN1C(=O)Cc2ccc(-c3ccc(C[C@@H](C#N)NC(=O)C45CCC(CC4)CN5)c(F)c3)cc21 [Example 28]
73	800	N#C[C@H](Cc1ccc(-c2csc(C(N)=O)c2)cc1F)NC(=O)C12CCC(CC1)CN2 [Example 31]

The next lines start with the compound.

SMILES	IC50 [1] [nM]	IC50 [2] [nM]
CN1C(=O)Cc2ccc(-c3ccc(C[C@@H](C#N)NC(=O)C45CCC(CC4)CN5)cc3)cc21 [Example 2]	27	6700
CN1Cc2cc(-c3ccc(C[C@@H](C#N)NC(=O)C45CCC(CC4)CN5)cc3)ccc2C1=O [Example 4]	86	6300
CS(=O)(=O)c1ccc(-c2ccc(C[C@@H](C#N)NC(=O)C34CCC(CC3)CN4)c(F)c2)cc1 [Example 21, N-[(1S)-1-cyano-2-[2-fluoro-4-(4-methanesulfonylphenyl)phenyl]ethyl]-2-azabicyclo[2.2.2]octane-1-carboxamide]	48	800
N#C[C@H](Cc1ccc(-c2ccc3c(c2)CCNC3=O)cc1F)NC(=O)C12CCC(CC1)CN2 [Example 22]	7	2300

From US8889708B2 (Boehringer Ingelheim International GmbH, priority 2013, dated 2014)
